Laboratory results as given in US20060025344A1, “Ghrelin receptor inverse agonists for regulation of feeding behaviors” (7TM Pharma A/S, priority 2002, published 2006).
“Also recorded” adds a separate entry of the source. Non-standard residues stand in square brackets, D forms with d. Residues, ends and D or L forms follow the SMILES beside them.

What was measured:
[1] = target: human ghrelin receptor (Homo sapiens, UniProt Q92847); assay: Inverse agonism on basal, constitutive signalling measured by inositol phosphate turnover in transiently transfected COS-7 cells; type: cell-based; settings: wild-type ghrelin receptor; for IC50: IP turnover
human ghrelin receptor, sequence (Q92847 whole entry): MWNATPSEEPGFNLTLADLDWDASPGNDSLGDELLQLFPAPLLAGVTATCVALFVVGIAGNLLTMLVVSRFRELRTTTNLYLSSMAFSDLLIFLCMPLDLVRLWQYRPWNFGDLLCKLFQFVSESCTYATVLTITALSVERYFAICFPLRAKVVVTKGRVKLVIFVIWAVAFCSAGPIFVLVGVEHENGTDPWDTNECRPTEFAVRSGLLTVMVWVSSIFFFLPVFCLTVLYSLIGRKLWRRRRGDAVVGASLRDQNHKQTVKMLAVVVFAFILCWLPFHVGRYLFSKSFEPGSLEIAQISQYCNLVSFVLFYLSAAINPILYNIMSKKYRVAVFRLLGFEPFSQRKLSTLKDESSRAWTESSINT
Method: Cells were transfected with Lipofectamine 2000 (Life Technologies).
(§1) Cells were washed twice in buffer, 20 mM HEPES, pH 7.4, supplemented with 140 mM NaCl, 5 mM KCl, 1 mM MgSO4, 1 mM CaCl2, 10 mM glucose, 0.05% (w/v) bovine serum; and were incubated in 0.5 ml buffer supplemented with 10 mM LiCl at 37 °C. for 30 min. […] Determinations were made in duplicates.

[2] = target: metal-ion site engineered ghrelin receptor (V:01 and V:05 substituted with His) (Homo sapiens, UniProt Q92847, L209H/M213H); assay: Inverse agonism on basal inositol phosphate turnover in the metal-ion site engineered receptor; type: cell-based
metal-ion site engineered ghrelin receptor (V:01 and V:05 substituted with His), sequence (Q92847 whole entry L209H/M213H): as the sequence (Q92847 whole entry) above, with L209H, M213H counted along it
Method: as §1
Metal-ion site engineering has previously been used as a molecular probe for both antagonism, agonism and inverse agonism (Elling et al., 1995; Elling et al., 1999; Rosenkilde et al., 1999). Here we built a metal-ion binding site into the ghrelin receptor by substituting residues V:01 and V:05 with His residues. 125 l-ghrelin bound with normal high affinity to the metal-ion site engineered receptor and ghrelin could stimulate IP turnover with a potency and efficacy as in the wild-type receptor (data not shown). […] A similar result has been obtained in the HHV8 encoded constitutively active ORF-74 receptor (Rosenkilde et al., 1999). […] This is important for the invention since the invention is aimed at small molecule, preferentially non-peptide compounds which will serve as inverse agonists against the receptor and most of these will conceivably as the majority of small molecule drugs in general in 7TM G protein coupled receptor bind in between the extracellular ends of the transmembrane segments.

[3] = target: NK1 receptor (Homo sapiens, UniProt P25103); assay: Block of SP induced accumulation of IP in COS-7 cells transiently transfected with the NK1 receptor; type: cell-based; settings: data not shown
NK1 receptor, sequence (P25103 whole entry, species assumed): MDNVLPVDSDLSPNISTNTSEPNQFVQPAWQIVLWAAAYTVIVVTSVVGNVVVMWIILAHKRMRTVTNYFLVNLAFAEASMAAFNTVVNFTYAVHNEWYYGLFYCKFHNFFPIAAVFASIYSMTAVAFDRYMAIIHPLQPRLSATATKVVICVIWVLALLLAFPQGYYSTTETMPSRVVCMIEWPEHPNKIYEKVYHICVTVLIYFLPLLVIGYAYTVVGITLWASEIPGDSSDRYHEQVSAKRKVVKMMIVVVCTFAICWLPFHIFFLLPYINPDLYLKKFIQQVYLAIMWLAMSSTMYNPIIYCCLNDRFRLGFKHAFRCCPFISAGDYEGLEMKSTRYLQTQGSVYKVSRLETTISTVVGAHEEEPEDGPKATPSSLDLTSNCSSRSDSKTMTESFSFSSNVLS

[4] = system: lean mice, mice with diet induced obesity, ob/ob obese mice; settings: cited from earlier work
[5] = system: bombesin receptor 1; settings: according to the literature; cited from earlier work

Row | SMILES | IC50 [1] [µM] | efficacy as inverse agonist (in words) ([1]; absence of ghrelin) | IC50 ([2]; metal ion site engineered receptor, IP turnover, read-out: IC50 for inverse agonism on basal, constitutive signalling) [µM] | efficacy as inverse agonist (in words) ([2]; metal-ion site engineered receptor) | antagonist potency on the NK1 receptor (in words) [3] | energy intake / food intake ([4]; lean mice, diet induced obesity mice, ob/ob obese mice, repeated administrations for six days) | rate of gastric emptying ([4]; mice) | body weight gain ([4]; repeated administrations, obese ob/ob mice (normal and obese mice)) | glycaemic control ([4]; repeated administrations, obese ob/ob mice) | antagonist potency on the bombesin receptor (in words) [5]
1 | O=C(O)CCc1ccc(-c2ccc(Br)cc2)n1-c1cccc(C(F)(F)F)c1 [TM27810, 3-[5-(4-Bromo-phenyl)-1-(3-trifluoromethyl-phenyl)-1H-pyrrol-2-yl]-propionic acid] | 6.5 | high efficacy inverse agonist; also recorded: efficiently decreases the constitutive signalling activity |  |  |  |  |  |  |  | 
2 | [Zn+2] [Zn(II)] | 160 ± 70 |  | 4.3 ± 0.2 | full inverse agonist |  |  |  |  |  | 
3 | CC(C)C[C@H](NC(=O)[C@H](CC(C)C)NC(=O)[C@@H](Cc1c[nH]c2ccccc12)NC(=O)[C@H](Cc1ccccc1)NC(=O)[C@@H](Cc1c[nH]c2ccccc12)NC(=O)[C@H](CCC(N)=O)NC(=O)[C@@H](Cc1ccccc1)NC(=O)[C@@H]1CCCN1C(=O)[C@H](CCCCN)NC(=O)[C@@H]1CCCN1C(=O)[C@H](N)CCCNC(=N)N)C(N)=O [[D-Arg^1, D-Phe^5, D-Trp^7,9, Leu^11]-Substance P] (H-[dR]PKP[dF]Q[dW]F[dW]LL-NH2; N-terminus and C-terminus assumed) |  |  |  |  | micromolar antagonist; also recorded: at micromolar concentrations also has effects | decreased | reduced | decreased | improved | micromolar antagonist
